Values of other authors, collected in paper PMC3983394 (Journal of Medicinal Chemistry, 2014).

Key:
mice [1] = tested on: mice
mice [2] = tested on: mice; remark: listed apart in the source
mice [3] = tested on: mice; remark: listed apart in the source
mice [4] = tested on: mice; remark: listed apart in the source

In the case of `CN1CCC[C@H]1c1cccnc1` [nicotine], the ED50 tail-flick (mice [1]) is listed as 1.3 (0.5–1.8) mg/kg, the ED50 hypothermia (mice [2]) is listed as 1.0 (0.6–2.1) mg/kg and the ED50 hot-plate (mice [3]) is listed as 0.65 (0.25–0.85) mg/kg. For the same molecule, the ED50 spontaneous activity (mice [4]) was 0.5 (0.15–0.78) mg/kg.
